Laboratory results taken from paper PMC6359800, “2-Ethoxystypandrone, a novel small-molecule STAT3 signaling inhibitor from Polygonum cuspidatum, inhibits cell growth and induces apoptosis of HCC cells and HCC Cancer stem cells” (BMC Complementary and Alternative Medicine, 2019).
Where two headings read alike, the source gives them in different places.

How the values were obtained:
[1] = tested on: IL-6/STAT3 signaling pathway; design: method as in PMID 22855270; details: previously reported value; read-out: IC50 against STAT3 signaling; cited from earlier work
[2] = tested on: Li-7 cells; assay: MTT cell viability assay, Li-7; format: cell-based; details: Homo sapiens, Li-7, 72 h, read-out: IC50, cell growth/viability
Method: (§1) Human hepatocellular carcinoma Hep3B and HepG2 were obtained from the American Type Culture Collection. Human hepatocellular carcinoma Huh-7, Li-7 and SK-HEP-1 cells were kindly provided by Stem Cell Bank, Chinese Academy of Sciences. HepG2/STAT3 cells were cultured in α-MEM (Life Technologies, USA) with 10% FCS (Life Technologies, USA) and the rest cell lines were cultured in DMEM (Life Technologies) with 10% FCS (Life Technologies, USA).
(§2) The cell growth inhibitory activities on human hepatocellular carcinoma cells were examined by the MTT (3-(4,5-dimethylthiazol–2-yl)-2,5-diphenyl tetrazolium bromide). About 3.5 × 10^4 cells per well were seeded into 96-well plates for 24 h. HepG2/STAT3 cells were then treated with vehicle control (DMSO) or 2-ethoxystypandrone (1) at indicated concentrations (0.016, 0.08, 0.4, 2, 10, 50, 100 μM) for 6.5 h. HCC Huh-7, Li-7, SK-HEP-1, HepG3B, and HepG2 cells were treated with 2-ethoxystypandrone (1) at indicated concentrations for 72 h. The assay was carried out by adding a MTT solution (20 μL, 5 mg/mL; Sigma Chemical Co.) to each well and incubating for 3 h at 37 °C to form MTT-formazan crystals by metabolically viable cells. The supernatant was aspirated, and the MTT-formazan crystals were dissolved in DMSO (150 μL). The absorbance was measured by a microplate reader (BioTek Instruments, USA) at a wavelength of 492/620 nm.

[3] = tested on: STAT3 tyrosine phosphorylation (Tyrosine 705) in HepG2/STAT3 cells; assay: Western blot, IL-6-induced STAT3 tyrosine phosphorylation; format: cell-based, human; details: 2 h pretreatment 2-100 μM, IL-6 15 min
Method: Expression of STAT3 and p-STAT3 proteins was analyzed by Western Blot analysis described in previous report. HepG2/STAT3 cells or HepG2 cells were grown to 70–80% confluency and then pre-treated with 2-ethoxystypandrone (1) at different concentrations (0, 2, 10, 50,100 μM) for 2 h. The cells were stimulated with IL-6 for 15 min (the phosphorylation of STAT3 appeared in the 15 min) and then lysed in Laemmli sample buffer and boiled for 5 min. Proteins were then separated by 8% SDS-PAGE and transferred to nitrocellulose membranes. Membranes were blocked in TBS containing 5% nonfat milk 0.1% and Tween 20 (TBST) for 1 h at room temperature and then incubated for 2 h in TBST containing primary antibodies and 5% bovine serum albumin. After being washed with TBST, membranes were then incubated with horseradish peroxidase-conjugated goat anti-mouse IgG (H + L) secondary antibody (#GAM007, MultiSciences) for 1 h, and finally immune complexes were detected by enhanced chemiluminescence. Primary antibodies used in Western blot were mouse anti-STAT3 (#9139,CST), mouse anti-pY-STAT3 (Tyrosine 705, #9138, CST), and mouse anti-α-tubulin (#sc5286, Santa Cruz).

[4] = tested on: SK-HEP-1 cells; assay: MTT cell viability assay, SK-HEP-1; format: cell-based; details: Homo sapiens, SK-HEP1, SK-HEP-1, 72 h, read-out: IC50, cell growth/viability
Method: as §1, §2

[5] = tested on: Huh-7 cells; assay: MTT cell viability assay, Huh-7; format: cell-based; details: Homo sapiens, Huh-7, 72 h, read-out: IC50, cell growth/viability
Method: as §1, §2

[6] = tested on: HCC CSCs isolated from HCC Huh-7 cells; assay: Tumorsphere formation assay; format: cell-based, human; details: 72 h
Method: (§3) HCC cancer stem cells were isolated from HCC Huh-7 cell line by serum-free cancer stem cell culture selection. The Huh-7 cells were collected and washed to remove serum, then suspended and plated in cancer stem cell conditioned culture medium (CSC medium) supplemented with 100 IU/ML pennicillin and 100 μg/ml streptomycin. CSC medium used for sustaining cancer stemness was serum-free DMEM/F12 containing 10 ng/ml basic fibroblast growth factor (bFGF), 20 ng/ml epidermal growth factor (EGF), 4 μg/ml heparin, 100 μg/ml apotransferrin, 25 μg/ml insulin, 9.6 μg/ml putrescin, 20 nM progesterone, 30 nM sodium selenite anhydrous, and 4 mg/ml bovine serum albumin. […]
To propagate the tumorspheres in vitro, spheres were collected by gentle centrifugation, dissociated with 0.005% trypsin-EDTA for 2 min, then added CSC medium and mechanically dissociated with a pipette to single cells. […] The dissociated single sphere-forming cells were diluted to a density of 1000 cells/ml, Then, the 1ml/well diluted cell suspension was plated to ultra-low attachment 12 wells plate and treated with indicated concentrations (0, 0.5, 1, 2, 3, 5, 8 and 10 μM) of compound 2-ethoxystypandrone for 72 h, the tumorspheres were photographed under an inverted microscope (Leica DMi8, Germany) and the tumorspheres larger than 50 μm in diameter were counted using ImageJ 1.45.

[7] = tested on: HepG3B cells; assay: MTT cell viability assay, HepG3B; format: cell-based; details: Homo sapiens, 72 h, read-out: IC50, cell growth/viability
Method: as §1, §2

[8] = tested on: HepG2 cells; assay: MTT cell viability assay, HepG2; format: cell-based; details: Homo sapiens, HepG2, 72 h, read-out: IC50, cell growth/viability
Method: as §1, §2

[9] = tested on: HCC CSCs; assay: Annexin V flow cytometry apoptosis, HCC CSCs; format: cell-based, human
Method: as §3
For analysis the apoptosis of HCC CSCs, the suspended tumorspheres were harvested and dissociated mechanically into single cells with 0.005% trypsin-EDTA for 2 min and the dissociated cells were re-seeded with CSC medium and treated with indicated concentrations (0, 5, 8, and 10 μM) of 2-ethoxystypandrone (1) for 24 h. The cells were harvested and then treated with FITC Annexin V apoptosis detection kit I (BD Biosciences Pharmingen, USA) according to the manufacturer’s protocol respectively and the samples were immediately then analyzed by flow cytometry (BD Canto II, USA). […]

[10] = tested on: HepG2/STAT3-luciferase cells; assay: MTT cell viability assay, HepG2/STAT3-luciferase cells 6.5 h; format: cell-based, human; details: 0.016-100 μM
Method: as §2

[11] = tested on: human HCC cell lines (Huh-7, Li-7, SK-HEP-1, HepG3B, and HepG2); assay: MTT cell viability assay, panel of human HCC cell lines; format: cell-based; details: five HCC cell lines, 72 h, read-out: IC50 range over tested HCC cells
Method: as §1, §2

[12] = tested on: Huh-7 cells; assay: Annexin V/PI flow cytometry apoptosis, Huh-7; format: cell-based, human; details: Huh-7, 8 μM, 24 h
Method: Huh-7 cells were grown to 70–80% confluence and then treated with various concentrations (0, 2, 4, and 8 μM) of 2-ethoxystypandrone (1) for 24 h. The cells were harvested and […]. The cells were then treated with FITC Annexin V apoptosis detection kit I (BD Biosciences Pharmingen) according to the manufacturer’s protocol and the samples were immediately then analyzed by flow cytometry (BD Canto II, USA). The percentage of cells undergoing apoptosis was calculated with CELLQuest 3.0 software. The dots in the lower left quadrant, upper left quadrant, upper right quadrant, and lower right quadrant represent the viable cells, the damages cells, the cells in late apoptosis and the cells in early apoptosis, respectively.

[13] = tested on: HCC CSCs; assay: PI flow cytometry cell cycle distribution, HCC CSCs; format: cell-based, human; details: 10 μM, 24 h
Method: HCC cancer stem cells were isolated from HCC Huh-7 cell line by serum-free cancer stem cell culture selection. The Huh-7 cells were collected and washed to remove serum, then suspended and plated in cancer stem cell conditioned culture medium (CSC medium) supplemented with 100 IU/ML pennicillin and 100 μg/ml streptomycin. CSC medium used for sustaining cancer stemness was serum-free DMEM/F12 containing 10 ng/ml basic fibroblast growth factor (bFGF), 20 ng/ml epidermal growth factor (EGF), 4 μg/ml heparin, 100 μg/ml apotransferrin, 25 μg/ml insulin, 9.6 μg/ml putrescin, 20 nM progesterone, 30 nM sodium selenite anhydrous, and 4 mg/ml bovine serum albumin. The Huh-7 cells were subsequently cultured in ultra-low attachment 6-well plates at a density of 5000 cells/well, half volume of the flesh medium was exchanged every second day. After 10–14 days of culture, the most Huh-7 cells died and the cells grew up as nonadherent, three-dimensional sphere clusters.
For analysis the apoptosis of HCC CSCs, the suspended tumorspheres were harvested and dissociated mechanically into single cells with 0.005% trypsin-EDTA for 2 min and the dissociated cells were re-seeded with CSC medium and treated with indicated concentrations (0, 5, 8, and 10 μM) of 2-ethoxystypandrone (1) for 24 h. The cells were harvested and then treated with FITC Annexin V apoptosis detection kit I (BD Biosciences Pharmingen, USA) according to the manufacturer’s protocol respectively and the samples were immediately then analyzed by flow cytometry (BD Canto II, USA). […] After washing the cells with pre-cooled PBS twice, the cells were then treated with Propidium iodide (PI)/RNase Staining Buffer (BD Biosciences Pharmingen, USA) according to the manufacturer’s protocol respectively and the samples were immediately then analyzed by flow cytometry (BD Canto II,USA).

[14] = tested on: IL-6/STAT3 signaling pathway; assay: STAT3-dependent luciferase reporter assay; format: cell-based, human; details: for IC50: HepG2/STAT3 luciferase cells, compound 1 h then IL-6 10 ng/mL 5.5 h
Source text: HepG2/STAT3 cells, a gift of Prof. Xinyuan Fu (National University of Singapore, Singapore), were the human hepatocellular carcinoma HepG2 cells stably transfected with a STAT3-responsive firefly luciferase reporter plasmid. Briefly, three tandem repeats of the oligonucleotide […], which contains the DNA binding sequence of STAT3, was artificially synthesized and introduced into the luciferase reporter vector pGL2-P plasmid (Promega). The pGL2-P/STAT3 construct was confirmed by sequencing. The luciferase reporter plasmid pGL2-P/STAT3 was used to transfect HepG2 cells using Lipofectamine 2000 (Invitrogen). The stably transfected HepG2 cell line with the pGL2-P/STAT3 plasmid was obtained by screening for G418-resistant cell clones.
The inhibitory activities on IL-6/STAT3 signaling were determined by STAT3-dependent luciferase reporter assay described in our previously report. HepG2/STAT3 cells were HepG2 cells stably transfected with a STAT3-responsive firefly luciferase reporter plasmid. The expression level of luciferase reached its peak value after 5–6 h stimulation by interleukin (IL)-6. HepG2/STAT3 cells (2 × 10^4 per well) were seeded into 96-well cell culture microplates (Corning) and allowed to grow for 48 h and then treated with compounds 1–8 (0, 0.00001, 0.0001, 0.001, 0.01, 0.1, 1, 4, 20 μM) for 1 h followed by stimulation with 10 ng/mL interleukin (IL)-6 (BD Biosciences) for 5.5 h (cells were treated with compounds 1–8 for 6.5h). Luciferase activities were measured with the Promega luciferase kit (# E4550) according to the manufacturer’s instruction. All luciferase assay experiments were carried out at least thrice in triplicate to minimize the difference caused by cell number. The JAK2/STAT3 inhibitor pyridone 6 (Merck Chemical) was used as a positive control.

SMILES: COC1=CC(=O)c2c(cc(C)c(C(C)=O)c2O)C1=O [2-methoxystypandrone, 2-methoxy-6-acetyl-7-methyl-juglone]
- IC50 [1]: 17.2 ± 0.21 µM

SMILES: CCOC1=CC(=O)c2c(cc(C)c(C(C)=O)c2O)C1=O [compound 1, 2-ethoxy-6-acetyl-7-methyl-juglone]
- IC50 [2]: 5.58 ± 0.89 µM
- IL-6-induced STAT3 tyrosine phosphorylation [3]: inhibit the IL-6-induced STAT3 tyrosine phosphorylation in a dose-dependent manner
- IC50 [4]: 8.78 µM
- IC50 [5]: 3.69 ± 0.51 µM
- self-renewal and tumorsphere formation vs control ([6]; 2 μM): significantly blocked self-renewal and the tumorsphere formation
- IC50 ([6]; Homo sapiens, Huh-7, HCC CSCs, spheres larger than 50 μm counted): 2.7 ± 0.28 µM
- IC50 [7]: 16.7 ± 0.58 µM
- IC50 [8]: 20.4 ± 2.9 µM
- percentage of apoptotic cells ([9]; 10 μM, 24 h): 41.2 ± 4.3%
- early apoptotic cells ([9]; 24 h (text; 10 μM per Fig. 5a)): 38.2 ± 4.2%
- cell viability [10]: not completely dead
- IC50 [11]: 3.69 to 20.4 µM
- total apoptosis [12]: 88.6 ± 1.4%
- cells in G0/G1 [13]: 37.53 ± 1.32%
- cells in G2/M phase [13]: 18.5 ± 0.36%
- cells in S phase [13]: 43.96 ± 1.07%
- IC50 ([14]; Homo sapiens): 7.75 ± 0.18 µM
- increased potency against STAT3 signaling compared with 2-methoxystypandrone ([14]; ratio of IC50 values): 2 fold

SMILES: O=C1COc2cc(O)cc(O)c21 [compound 3, 4,6-dihydroxybenzofuran-3-one]
- IC50 ([14]; Homo sapiens): > 100 µM

SMILES: O=C(OC1C(Oc2cc(O)cc(C=Cc3ccc(O)cc3)c2)OC(CO)C(O)C1O)c1cc(O)c(O)c(O)c1 (stereo not drawn) [compound 5, polydatin-2′-O-gallate]
- IC50 ([14]; Homo sapiens): > 100 µM

SMILES: OC[C@H]1O[C@@H](Oc2cc(O)cc(/C=C/c3ccc(O)cc3)c2)[C@H](O)[C@@H](O)[C@@H]1O [compound 6, polydatin]
- IC50 ([14]; Homo sapiens): > 100 µM

SMILES: O=C(OC1Cc2c(O)cc(O)cc2OC1c1ccc(O)c(O)c1)c1cc(O)c(O)c(O)c1 (stereo not drawn) [compound 7, catechin-3-O-gallate]
- IC50 ([14]; Homo sapiens): > 100 µM

SMILES: CC(C)(C)c1nc2c3cc[nH]c(=O)c3c3cc(F)ccc3c2[nH]1 [pyridone 6, reference compound]
- IC50 [14]: 0.02 ± 0.001 µM
